This note sets out measurements from US7750003B2, “Compounds-943” (AstraZeneca AB, priority 2006, dated 2010).

As a reminder, the IC50 is the concentration needed to halve the response being measured.

The test system of the experiment is phosphorylation of Serine 473 in Akt in MDA-MB-468 human breast adenocarcinoma cells. The experiment can be described thus: In vitro phospho-Ser473 Akt assay (Test (c)). The class given is cell-based. The conditions noted are these: Homo sapiens, MDA-MB-468, 2 h, MDA-MB-468 cells, 2 hours incubation; read-out: Test (c): IC50 versus Serine 473 in Akt. An outline of the steps: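 MDA-MB-468 cells (15000/well, adhered overnight) treated with compound for 2 h at 37 °C, 5% CO2. After formaldehyde fixation, permeabilisation and blocking, phospho-Akt Ser473 immunostained with Alexafluor488 secondary and quantified by laser-scanning imaging (Acumen Explorer); IC50 from fluorescence dose–response.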
As to `C[C@H]1COCCN1c1cc(CS(=O)(=O)C2CC2)nc(-c2ccc(NC(=O)NCCN(C)C)cc2)n1` [Example 57f, 1-[4-[4-(cyclopropylsulfonylmethyl)-6-[(3S)-3-methylmorpholin-4-yl]pyrimidin-2-yl]phenyl]-3-(2-dimethylaminoethyl)urea], the IC50 worked out at 0.72 µM.

Take `C[C@H]1COCCN1c1cc(C(C)(C)S(=O)(=O)c2ccc(F)cc2)nc(-c2ccc(NC(=O)NCCN(C)C)cc2)n1` [Example 61o, 3-(2-dimethylaminoethyl)-1-[4-[4-[2-(4-fluorophenyl)sulfonylpropan-2-yl]-6-[(3S)-3-methylmorpholin-4-yl]pyrimidin-2-yl]phenyl]urea]: the IC50 was 0.045 µM.

In the case of `C[C@H]1COCCN1c1cc(C(C)(C)S(=O)(=O)C(C)(C)C)nc(-c2ccc(NC(=O)NCCO)cc2)n1` [Example 66g, 3-(2-hydroxyethyl)-1-[4-[4-[(3S)-3-methylmorpholin-4-yl]-6-(2-tert-butylsulfonylpropan-2-yl)pyrimidin-2-yl]phenyl]urea], the IC50 amounted to 0.3 µM.

Turning to `CC(C)S(=O)(=O)C(C)(C)c1cc(N2CCOC[C@@H]2C)nc(-c2ccc(NC(=O)NC3CCC3)cc2)n1` [Example 60m, 3-cyclobutyl-1-[4-[4-[(3S)-3-methylmorpholin-4-yl]-6-(2-propan-2-ylsulfonylpropan-2-yl)pyrimidin-2-yl]phenyl]urea], the half-inhibitory concentration (IC50) turned out to be 0.059 µM.

As for `CC(C)CNC(=O)Nc1ccc(-c2nc(CS(=O)(=O)C(C)C)cc(N3CCOC[C@@H]3C)n2)cc1` [Example 60b, 1-[4-[4-[(3S)-3-methylmorpholin-4-yl]-6-(propan-2-ylsulfonylmethyl)pyrimidin-2-yl]phenyl]-3-(2-methylpropyl)urea], the concentration for half-maximal inhibition (IC50) came out at 1.8 µM.

Consider `C[C@H]1COCCN1c1cc(CN(C)C)nc(-c2ccc(NC(=O)NC3CC3)cc2)n1` [Example 49d, 3-cyclopropyl-1-[4-[4-(dimethylaminomethyl)-6-[(3S)-3-methylmorpholin-4-yl]pyrimidin-2-yl]phenyl]urea], for which the 50% inhibitory concentration (IC50) turned out to be 0.62 µM.

For the compound `C[C@H]1COCCN1c1cc(CS(=O)(=O)c2ccc(F)cc2)nc(-c2ccc(NC(=O)NCCCO)cc2)n1` [Example 61h, 1-[4-[4-[(4-fluorophenyl)sulfonylmethyl]-6-[(3S)-3-methylmorpholin-4-yl]pyrimidin-2-yl]phenyl]-3-(3-hydroxypropyl)urea], the IC50 was determined as 0.79 µM.

For the compound `C[C@H]1COCCN1c1cc(C(C)(C)O)nc(-c2ccc(NC(=O)Nc3ccon3)cc2)n1` [Example 41, 1-[4-[4-(2-Hydroxypropan-2-yl)-6-[(3S)-3-methylmorpholin-4-yl]pyrimidin-2-yl]phenyl]-3-(1,2-oxazol-3-yl)urea], the half-maximal inhibitory concentration (IC50) is 0.047 µM.

Take `C[C@H]1COCCN1c1cc(C(C)(C)S(C)(=O)=O)nc(-c2ccc(NC(=O)NCc3cc[nH]n3)cc2)n1` [Example 24ay, 1-[4-[4-[(3S)-3-methylmorpholin-4-yl]-6-(2-methylsulfonylpropan-2-yl)pyrimidin-2-yl]phenyl]-3-(1H-pyrazol-3-ylmethyl)urea]: the half-maximal inhibitory concentration (IC50) amounted to 7.9 µM.

Turning to `CNC(=O)Nc1ccc(-c2nc(N3CCOC[C@@H]3C)cc(C(C)(C)S(=O)(=O)C3CC3)n2)cc1` [Example 57, 1-[4-[4-(2-Cyclopropylsulfonylpropan-2-yl)-6-[(3S)-3-methylmorpholin-4-yl]pyrimidin-2-yl]phenyl]-3-methyl-urea], the IC50 amounted to 0.25 µM.

In the case of `C[C@H]1COCCN1c1cc(C(C)(C)S(C)(=O)=O)nc(-c2ccc(NC(=O)N3CCC(O)CC3)cc2)n1` [Example 24bc, 4-hydroxy-N-[4-[4-[(3S)-3-methylmorpholin-4-yl]-6-(2-methylsulfonylpropan-2-yl)pyrimidin-2-yl]phenyl]piperidine-1-carboxamide], the IC50 came to 0.69 µM.

For the compound `CCNC(=O)Nc1ccc(-c2nc(N3CCOC[C@@H]3C)cc(C(C)(C)S(=O)(=O)C3CC3)n2)cc1` [Example 57k, 1-[4-[4-(2-cyclopropylsulfonylpropan-2-yl)-6-[(3S)-3-methylmorpholin-4-yl]pyrimidin-2-yl]phenyl]-3-ethyl-urea], the IC50 came to 0.34 µM.

On to `C[C@H]1COCCN1c1cc(C(C)(C)S(C)(=O)=O)nc(-c2ccc(NC(=O)NCc3ncc[nH]3)cc2)n1` [Example 24au, 3-(1H-imidazol-2-ylmethyl)-1-[4-[4-[(3S)-3-methylmorpholin-4-yl]-6-(2-methylsulfonylpropan-2-yl)pyrimidin-2-yl]phenyl]urea], for which the half-inhibitory concentration (IC50) was 2.4 µM.

As for `CNC(=O)Nc1ccc(-c2nc(N3CCOC[C@@H]3C)cc(C(C)(C)S(C)(=O)=O)n2)cn1` [Example 24ah, 3-methyl-1-[5-[4-[(3S)-3-methylmorpholin-4-yl]-6-(2-methylsulfonylpropan-2-yl)pyrimidin-2-yl]pyridin-2-yl]urea], the IC50 was found to be 0.51 µM.

Consider `CC(C)S(=O)(=O)C(C)(C)c1cc(N2CCOC[C@@H]2C)nc(-c2ccc(NC(=O)NC3CC3)cc2)n1` [Example 60l, 3-cyclopropyl-1-[4-[4-[(3S)-3-methylmorpholin-4-yl]-6-(2-propan-2-ylsulfonylpropan-2-yl)pyrimidin-2-yl]phenyl]urea], for which the half-inhibitory concentration (IC50) was 0.064 µM.

`CC(C)S(=O)(=O)Cc1cc(N2CCOC[C@@H]2C)nc(-c2ccc(NC(=O)Nc3cnn(C)c3)cc2)n1` [Example 60h, 1-[4-[4-[(3S)-3-methylmorpholin-4-yl]-6-(propan-2-ylsulfonylmethyl)pyrimidin-2-yl]phenyl]-3-(1-methylpyrazol-4-yl)urea]: the half-inhibitory concentration (IC50) was 1.9 µM.

As to `CC(C)S(=O)(=O)Cc1cc(N2CCOC[C@@H]2C)nc(-c2ccc(NC(=O)NC(C)(C)CO)cc2)n1` [Example 60g, 3-(1-hydroxy-2-methyl-propan-2-yl)-1-[4-[4-[(3S)-3-methylmorpholin-4-yl]-6-(propan-2-ylsulfonylmethyl)pyrimidin-2-yl]phenyl]urea], the IC50 amounted to 0.22 µM.

With `CCNC(=O)Nc1ccc(-c2nc(N3CCOC[C@@H]3C)cc(C(C)(C)S(=O)(=O)C(C)C)n2)cc1` [Example 60j, 1-ethyl-3-[4-[4-[(3S)-3-methylmorpholin-4-yl]-6-(2-propan-2-ylsulfonylpropan-2-yl)pyrimidin-2-yl]phenyl]urea], the IC50 was found to be 0.19 µM.

In the case of `C[C@H]1COCCN1c1cc(C(=O)N2CCS(=O)(=O)CC2)nc(-c2ccc(NC(=O)NC3CC3)cc2)n1` [Example 63b, 3-cyclopropyl-1-[4-[4-(1,1-dioxo1,4-thiazinane-4-carbonyl)-6-[(3S)-3-methylmorpholin-4-yl]pyrimidin-2-yl]phenyl]urea], the half-maximal inhibitory concentration (IC50) came out at 0.5 µM.

In the case of `CC(C)CNC(=O)Nc1ccc(-c2nc(N3CCOC[C@@H]3C)cc(C(C)(C)S(=O)(=O)C(C)C)n2)cc1` [Example 60r, 1-[4-[4-[(3S)-3-methylmorpholin-4-yl]-6-(2-propan-2-ylsulfonylpropan-2-yl)pyrimidin-2-yl]phenyl]-3-(2-methylpropyl)urea], the 50% inhibitory concentration (IC50) is 0.21 µM.
